The values below come from paper PMC10800876, “Evaluation of proline-rich antimicrobial peptides as potential lead structures for novel antimycotics against Cryptococcus neoformans” (Frontiers in Microbiology, 2024).

≈ marks a conversion by molar mass, not a printed value. Read-outs that look alike come from different tables or passages of the source. Non-standard residues stand in square brackets, D forms with d. Residues, ends and D or L forms follow the SMILES beside them. Ac6c = NC1(C(=O)O)CCCCC1 Some results are limits rather than exact numbers.

Series [1] deals with C. neoformans strains 1841, H99, and KN99α. Briefly: Broth microdilution assay (MIC). It is filed as cell-based, Cryptococcus neoformans.
For series [2], the system named is C. neoformans 1841. Briefly: Antifungal activity assay (CFU on SAB agar). Format: cell-based, Cryptococcus neoformans. To be noted: treatment 3 h, 30 °C, mean ± SD, n = 4; for cell count C. neoformans 1841, 24 h: CFU counted after 24 h; for cell count C. neoformans 1841, 48 h: CFU counted after 48 h.
Another series relates to C. neoformans H99. Briefly: Antifungal activity assay (CFU on SAB agar). It is filed as cell-based, Cryptococcus neoformans. Conditions: treatment 3 h, 30 °C, mean ± SD, n = 4; for cell count C. neoformans H99, 24 h: CFU counted after 24 h; for cell count C. neoformans H99, 48 h: CFU counted after 48 h.
A further series has as its system C. neoformans KN99α. Briefly: Antifungal activity assay (CFU on SAB agar). It is filed as cell-based, Cryptococcus neoformans. To be noted: treatment 3 h, 30 °C, mean ± SD, n = 4; for cell count C. neoformans KN99α, 24 h: CFU counted after 24 h; for cell count C. neoformans KN99α, 48 h: CFU counted after 48 h.
The subject of series [3] is C. neoformans 1841. Briefly: Time-kill assay. To be noted: 2.5 μmol/L, 30°C, triplicates. Format: cell-based, Cryptococcus neoformans. As to the method: The kinetic effects of the antifungal activity were determined by diluting overnight cultures to 5 × 10^4 CFU/mL with 50% SAB in phosphate buffer. Aqueous peptide solutions (20 μL) were added to the cell suspension (80 μL) to give a final peptide concentration of 2.5 μmol/L. Samples were incubated at 30°C on an orbital shaker (750 rpm, Titramax 1,000, Heidolph Instruments GmbH & Co. KG) for 24 h. Before incubation (0 min) and after 45 min, 90 min, 3 h, 6 h, and 24 h incubation, aliquots (10 μL) of samples were taken and diluted with phosphate buffer (10 mmol/L, pH 7.5) to observe countable cell colonies. Aliquots (100 μL) of the diluted cell suspensions were plated on SAB agar plates. Plates were incubated at 30°C and colonies were counted after 24 h.

The test system of series [4] is C. neoformans strains 1841, H99, and KN99α. Briefly: Antifungal activity assay (CFU). Conditions: peptide concentrations ≥2.5 μmol/L, no colonies visible even after 48 h. Format: cell-based, Cryptococcus neoformans.
The test system of series [5] is HepG2 and HEK293 cell lines. Briefly: Cytotoxicity (MTT), for both cell lines. It is filed as cell-based, human.
Method: Human embryonic kidney (HEK293) and human hepatoma (HepG2) cells were cultured in Dulbecco’s modified Eagle’s/Ham’s F-12 medium (DMEM/F-12) containing 10% (v/v) fetal bovine serum and 1% (v/v) penicillin/streptomycin. Cells (20,000 in 200 μL per well) were seeded into a 96-well plate (polystyrene F-bottom, Greiner Bio-One GmbH) and incubated for 24 h (37°C, 5% CO2). Cells were washed with PBS (100 μL) and peptide solutions (0.6 g/L in DMEM/F-12) were added. The positive control was a dilution series from 12 to 1.5% (v/v) DMSO and the negative control was 12% (v/v) PBS. After incubation (37°C, 24 h, 5% CO2), the supernatant was discarded, fresh medium (90 μL/well) and MTT (10 μL/well, 5 g/L in PBS) were added, and the plate was incubated for 4 h (37°C, 5% CO2). A solution (100 μL) of sodium dodecyl sulfate (10% (v/v)) in hydrochloric acid (10 mmol/L) was added and the plate was incubated again for 24 h (37°C, 5% CO2). Absorbance was recorded at 570 nm relative to the reference at 650 nm ([…] ™ microplate reader). All samples were corrected for the background absorbance of the medium. Relative cell viability was calculated as the ratio of absorbances recorded for treated and untreated cells ([Kolano et al., 2021]; [Brakel et al., 2022a],[b]).
Series [6] relates to C. neoformans 1841 (serotype D).
For series [7], the system named is C. neoformans H99 (serotype A).
Series [8] deals with C. neoformans KN99α (serotype A, mating type MATα).
Another series deals with C. neoformans. Conditions: cited from earlier work. The source says: Moreover, these drugs have tremendous side effects due to their high toxicity, particularly kidney damage. In general, the dev ...
The test system of the next series is in vitro translation. Conditions: ref Seefeldt et al., 2016; cited from earlier work. As to the method: The putative intracellular mode of action is a very significant finding, supported by CLSM images showing fluorescence in the cytoplasmic region after incubation of C. neoformans with Cf-labeled PrAMPs (Figure 4; Supplementary Figure S3). At this point, we can only speculate about potential targets, such as the ribosomes at the endoplasmic reticulum, which is the primary target of PrAMPs in bacteria, i.e., the 70S ribosome ([Krizsan et al., 2014], [2015a],[b]; [Seefeldt et al., 2015]; [Graf et al., 2017]). […] However, ...

Series [9] relates to C. neoformans 1841 (serotype D). Briefly: microbe, parasite or virus in culture. Conditions: Cryptococcus neoformans.
Series [10] concerns C. neoformans H99 (serotype A). Briefly: microbe, parasite or virus in culture. To be noted: Cryptococcus neoformans.
The test system of series [11] is C. neoformans KN99α (serotype A, mating type MATα). Briefly: microbe, parasite or virus in culture. To be noted: Cryptococcus neoformans.

`CC(C)C[C@H](NC(=O)[C@H](Cc1ccc(O)cc1)NC(=O)[C@@H]1CCCN1C(=O)[C@H](CCCNC(=N)N)NC(=O)[C@@H]1CCCN1C(=O)[C@H](CCCCN)NC(=O)[C@H](CCCCN)NC(=O)[C@@H]1CCCN1C(=O)[C@H](CCCNC(=N)N)NC(=O)C1(N)CCCCC1)C(=O)N1CCC[C@H]1C(=O)N[C@@H](CCCNC(=N)N)C(=O)N1CCC[C@H]1C(=O)N[C@@H](CCCNC(=N)N)C(=O)N1CCC[C@H]1C(=O)N1CCC[C@H]1C(=O)N[C@@H](CCCNC(=N)N)C(=O)N1CCC[C@H]1C(=O)N[C@H](C(=O)N[C@@H](CCCNC(=N)N)C(N)=O)C(C)C` [Chex1Arg20 D4K] (H-[Ac6c]RPKKPRPYLPRPRPPRPVR-NH2; N-terminus assumed): the “MIC” value in [1] (strains 1841, H99, and KN99α, 24 h) is 1.6 µM. In addition, the “cell count C. neoformans 1841, 24 h” value in the series on C. neoformans 1841 [2] (0.25 µmol/L) is reported as 0.4 ± 0.0 x 10^4 CFU/mL; in the series on C. neoformans 1841 [2] (2.5 µmol/L) it was 0.0 ± 0.0 x 10^4 CFU/mL; with C. neoformans 1841 [2] (25 µmol/L) it was 0.0 ± 0.0 x 10^4 CFU/mL. Further, the “cell count C. neoformans 1841, 48 h” value is 2.2 ± 0.3 x 10^4 CFU/mL with C. neoformans 1841 [2] (0.25 µmol/L), 0.0 ± 0.0 x 10^4 CFU/mL in the series with C. neoformans 1841 [2] (2.5 µmol/L) and 0.0 ± 0.0 x 10^4 CFU/mL in the series on C. neoformans 1841 [2] (25 µmol/L). In addition, the results for the “cell count C. neoformans H99, 24 h” value in the series with C. neoformans H99 (0.25 µmol/L), with C. neoformans H99 (2.5 µmol/L) and with C. neoformans H99 (25 µmol/L) were 2.7 ± 0.4 x 10^4 CFU/mL, 0.0 ± 0.0 x 10^4 CFU/mL and 0.0 ± 0.0 x 10^4 CFU/mL, respectively. In addition, the “cell count C. neoformans H99, 48 h” value was 2.9 ± 0.4 x 10^4 CFU/mL in the series on C. neoformans H99 (0.25 µmol/L), 0.1 ± 0.0 x 10^4 CFU/mL with C. neoformans H99 (2.5 µmol/L) and 0.0 ± 0.0 x 10^4 CFU/mL in the series on C. neoformans H99 (25 µmol/L). For the same molecule, the “cell count C. neoformans KN99α, 24 h” value in the series on C. neoformans KN99α (0.25 µmol/L) is reported as 2.0 ± 1.2 x 10^4 CFU/mL; in the series on C. neoformans KN99α (2.5 µmol/L), 0.1 ± 0.1 x 10^4 CFU/mL; with C. neoformans KN99α (25 µmol/L), 0.8 ± 1.3 x 10^4 CFU/mL. The “cell count C. neoformans KN99α, 48 h” value is listed as 2.2 ± 1.1 x 10^4 CFU/mL with C. neoformans KN99α (0.25 µmol/L), 0.1 ± 0.1 x 10^4 CFU/mL with C. neoformans KN99α (2.5 µmol/L) and 0.8 ± 1.3 x 10^4 CFU/mL with C. neoformans KN99α (25 µmol/L). Further, the “incubation time after which no viable cells were detected” value in the series with C. neoformans 1841 [3] is given as 45 min. Also, the “suppression of fungi, colonies after 48 h” value in [4] was “completely suppressed the fungi”. Moreover, in series [5], the “peptide concentration used in cytotoxicity test relative to MIC (safety margin)” value was 150 fold. Besides, the “MIC (μmol/L) 1841 24 h” value in series [6] (1841 (serotype D, 24 h, pH 7.5)) worked out at 1.6 µmol/L (≈ 3.98 µg/mL). Moreover, the “MIC (μmol/L) 1841 48 h” value in series [6] (1841 (serotype D, 48 h, pH 7.5)) turned out to be 1.6 µmol/L (≈ 3.98 µg/mL). Further, the “MIC (μmol/L) H99 24 h” value in series [7] (H99 (serotype A, 24 h)) came to 1.6 µmol/L (≈ 3.98 µg/mL). In addition, in [7] (H99 (serotype A, 48 h)), the “MIC (μmol/L) H99 48 h” value was 1.6 µmol/L (≈ 3.98 µg/mL). Further, the “MIC (μmol/L) KN99α 24 h” value in series [8] (KN99α (serotype A, mating type MATα, 24 h)) stood at 1.6 µmol/L (≈ 3.98 µg/mL). The “MIC (μmol/L) KN99α 48 h” value in [8] (KN99α (serotype A, mating type MATα, 48 h)) turned out to be 1.6 µmol/L (≈ 3.98 µg/mL).

Take `N=C(N)NCCCCC(=O)Nc1cc(C(F)(F)F)cc(NC(=O)c2cc(C(=O)Nc3cc(C(F)(F)F)cc(NC(=O)CCCCNC(=N)N)c3O[C@@H]3CCNC3)ncn2)c1O[C@@H]1CCNC1` [brilacidin]: in the series on C. neoformans (ref Dos Reis et al., 2023), the “MIC against C. neoformans” value is 2.5 µM (≈ 2.34 µg/mL).

For “Bac7 (1-35): mammalian PrAMP fragment, literature (RRIRPRPPRLPRPRPRPLPFPRPGPRPIPRPLPFP; Bactenecin 7; UniProt P19661 131-165, looked up, fragment)”, the “MIC against C. neoformans” value in the series on C. neoformans (ref Benincasa et al., 2004, Conti et al., 2013) was at least 4 µM. Also, the “IC50 in eukaryotic in vitro translation system relative to the E. coli system” value in the series with in vitro translation is listed as 2.5 fold.

Regarding `C[C@@H]1[C@H](O)[C@@H](C)/C=C/C=C/C=C/C=C/C=C/C=C/C=C/[C@H](O[C@@H]2O[C@H](C)[C@@H](O)[C@H](N)[C@@H]2O)C[C@@H]2O[C@](O)(C[C@@H](O)C[C@@H](O)[C@H](O)CC[C@@H](O)C[C@@H](O)CC(=O)O[C@H]1C)C[C@H](O)[C@H]2C(=O)O` [Amphotericin B, reference compound], the “MIC” value in series [1] was under 0.2 µg/mL; in [1] (Cryptococcus neoformans, read-out: MIC) it was under 0.22 µM; in series [9] (24 h, pH 7.5, read-out: MIC (μmol/L) 1841 24 h), 0.06 to 0.23 µmol/L; in [9] (24 h, read-out: MIC (mg/L) 1841 24 h) it was 0.06 to 0.12 mg/L; in series [9] (48 h, pH 7.5, read-out: MIC (μmol/L) 1841 48 h), 0.13 µmol/L; in [9] (48 h, read-out: MIC (mg/L) 1841 48 h), 0.12 mg/L. For the same molecule, the MIC in series [10] (24 h, read-out: MIC (mg/L) H99 24 h) is under 0.02 mg/L; in [10] (24 h, read-out: MIC (μmol/L) H99 24 h) it was under 0.02 µmol/L; in series [10] (48 h, read-out: MIC (mg/L) H99 48 h), 0.04 to 0.08 mg/L; in series [10] (48 h, read-out: MIC (μmol/L) H99 48 h), 0.04 to 0.09 µmol/L; in series [11] (24 h, read-out: MIC (mg/L) KN99α 24 h) it was 0.08 mg/L; in series [11] (24 h, read-out: MIC (μmol/L) KN99α 24 h) it was 0.09 µmol/L. For the same molecule, the MIC in series [11] (48 h, read-out: MIC (mg/L) KN99α 48 h) is 0.16 mg/L; in [11] (48 h, read-out: MIC (μmol/L) KN99α 48 h), 0.17 µmol/L. For the same molecule, the “cell count C. neoformans 1841, 24 h” value in the series with C. neoformans 1841 [2] (0.25 µmol/L) is 1.4 ± 0.3 x 10^4 CFU/mL; with C. neoformans 1841 [2] (2.5 µmol/L) it was 0.0 ± 0.0 x 10^4 CFU/mL; with C. neoformans 1841 [2] (25 µmol/L) it was 0.0 ± 0.0 x 10^4 CFU/mL. In addition, the “cell count C. neoformans 1841, 48 h” value was 1.4 ± 0.3 x 10^4 CFU/mL with C. neoformans 1841 [2] (0.25 µmol/L), 0.0 ± 0.0 x 10^4 CFU/mL in the series with C. neoformans 1841 [2] (2.5 µmol/L) and 0.0 ± 0.0 x 10^4 CFU/mL in the series with C. neoformans 1841 [2] (25 µmol/L). Also, the “cell count C. neoformans H99, 24 h” value in the series on C. neoformans H99 (0.25 µmol/L) is reported as 0.9 ± 0.7 x 10^4 CFU/mL; in the series with C. neoformans H99 (2.5 µmol/L), 0.0 ± 0.0 x 10^4 CFU/mL; in the series on C. neoformans H99 (25 µmol/L) it was 0.0 ± 0.0 x 10^4 CFU/mL. Also, the “cell count C. neoformans H99, 48 h” value in the series on C. neoformans H99 (0.25 µmol/L) is reported as 1.1 ± 0.7 x 10^4 CFU/mL; in the series with C. neoformans H99 (2.5 µmol/L), 0.0 ± 0.0 x 10^4 CFU/mL; in the series with C. neoformans H99 (25 µmol/L), 0.0 ± 0.0 x 10^4 CFU/mL. For the same molecule, the “cell count C. neoformans KN99α, 24 h” value in the series with C. neoformans KN99α (0.25 µmol/L) is on record as 2.4 ± 1.5 x 10^4 CFU/mL; in the series with C. neoformans KN99α (2.5 µmol/L) it was 0.1 ± 0.1 x 10^4 CFU/mL; in the series on C. neoformans KN99α (25 µmol/L), 0.0 ± 0.0 x 10^4 CFU/mL. Further, the “cell count C. neoformans KN99α, 48 h” value was 2.5 ± 1.7 x 10^4 CFU/mL with C. neoformans KN99α (0.25 µmol/L), 0.1 ± 0.1 x 10^4 CFU/mL with C. neoformans KN99α (2.5 µmol/L) and 0.0 ± 0.0 x 10^4 CFU/mL in the series with C. neoformans KN99α (25 µmol/L). In [5] (125 mg/L, 24 h), the “cytotoxicity” value was “strong cytotoxicity”.
